This passage reports IC50 results from patent publication US20260217700A1, “KINESIN KIF18A INHIBITOR AND USE THEREOF” (SHANGHAI APEIRON THERAPEUTICS COMPANY LIMITED, priority 2022, published 2026).

The subject of one experiment is HT29 cells. In words: CyQuant cell proliferation activity test. The class given is cell-based. The following applies: read-out: HT-29 Cell Viability_IC50_nM. The procedure:
Materials and Cells: HT29 cells were purchased from Nanjing Cobioer Biosciences Co., Ltd.; RPMI-1640 medium, fetal bovine serum, Trypsin-EDTA (0.25%), 96-well plates, and CyQuant reagents were purchased from ThermoFisher (USA); DMSO was purchased from SIGMA (USA).
Cell Culture: Culture HT29 cells with RPMI-1640 containing 10% fetal bovine serum under the condition of 37° C. and 5% CO2. Only cells in the logarithmic growth phase can be used for the test.
Cell Proliferation Activity Test: Use the CyQuant reagent to detect the proliferation inhibitory activity of compounds on HT29 cells. The cell density was adjusted, and 100 μL per well was inoculated into a 96-well plate (HT29 at 2000 cells per well), then incubated overnight at 37° C. and 5% CO2. Add compounds of various target concentrations (initial concentration of 3000 nM, 3-fold dilution, 9 concentration gradients), and make the DMSO content 0.2%. The cell plate was incubated at 37° C. in 5% CO2 for 3 days. Incubate with CyQuant reagent for 1 h, read the plate by Envision, and calculate IC50 using XLFIT.

Experiment [1] deals with T1, Human KIF18A (amino acid sequence 1-417) (Homo sapiens, UniProt Q8NI77).
T1 construct: purchased Viva Biotech (Shanghai) Ltd
T1 sequence (Q8NI77 1-417): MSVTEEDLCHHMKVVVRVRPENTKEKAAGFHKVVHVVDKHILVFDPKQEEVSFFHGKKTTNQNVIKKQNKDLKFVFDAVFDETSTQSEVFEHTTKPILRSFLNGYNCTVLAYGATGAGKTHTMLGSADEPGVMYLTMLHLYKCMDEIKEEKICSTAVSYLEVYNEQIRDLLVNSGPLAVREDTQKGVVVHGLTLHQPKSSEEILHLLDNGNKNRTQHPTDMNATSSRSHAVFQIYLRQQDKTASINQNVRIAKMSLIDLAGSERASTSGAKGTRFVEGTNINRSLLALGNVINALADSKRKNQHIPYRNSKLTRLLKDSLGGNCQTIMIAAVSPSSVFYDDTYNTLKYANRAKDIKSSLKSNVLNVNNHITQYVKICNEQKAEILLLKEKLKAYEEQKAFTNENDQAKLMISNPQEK
In words: Enzymatic activity test (ADP-Glo, microtubule-stimulated ATPase). The class given is biochemical. The conditions noted are these: KIF18A 2.5 nM, ATP 25 μM, microtubules 60 μg/mL, 120 min at ambient temperature, ADP-Glo chemiluminescence; read-out: Enzyme Activity. The procedure:
Materials: Human KIF18A (amino acid sequence 1-417) was purchased from Viva Biotech (Shanghai) Ltd.; the ADP-Glo™ protein kinase kit was acquired from Promega, USA; tubulin was sourced from Cytoskeleton, USA; and the 384-well assay plate and Envision multifunctional microplate reader were obtained from PerkinElmer, USA.
Enzymatic Activity Test: Dissolve the compound powder in DMSO to prepare a stock solution of 10 mM. Then perform gradient dilution for the compounds in the microplate to achieve a final concentration of […]. Then, add 2.5 μL each of tubulin, compound, ATP, and KIF18A protein to the microplate in sequence for reaction at ambient temperature for 120 min. The final concentrations in the enzyme reaction are 60 μg/mL for microtubules, 25 μM for ATP, and 2.5 nM for KIF18A protein. After the enzyme reaction, add 10 μL of ADP-GLO reaction reagent to each well and incubate at ambient temperature for 30 min. After that, add […] to each well and incubate at ambient temperature for 30 min in the dark. Finally, perform chemiluminescence detection using the PerkinElmer Envision.
For orientation: ADP-Glo turns the ADP formed in a reaction into a luminescent signal.

A further experiment has as its system OVCAR3 cells. In words: Cell proliferation activity test (CyQUANT Direct). The format is cell-based. The following applies: read-out: OVCAR-3 Cell Viability_IC50_nM. The method, then:
Materials and Cells: OVCAR3 cells were purchased from Nanjing Cobioer Biosciences Co., Ltd. RPMI-1640 medium, fetal bovine serum, and the CyQUANT Direct Cell Proliferation Assay kit were purchased from Thermo Fisher Scientific, USA; 96-well cell culture plates were sourced from Corning, USA.
Cell Culture: Culture OVCAR3 cells with RPMI-1640 medium containing 10% fetal bovine serum and incubate them in a 5% CO2 incubator at 37° C. Only cells in the logarithmic growth phase can be used for the test.
Inoculate OVCAR3 cells into a 96-well cell culture plate at 90 μL per well and incubate overnight in a 5% CO2 incubator at 37° C. Dissolve the compound powder in DMSO to prepare a stock solution of 10 mM. Then perform gradient dilution for the compounds in the microplate to achieve a final concentration of 0-10 μM. Add 10 μL of cell culture medium containing compounds to each well to make the final DMSO content 0.2%. Incubate the cell plates in a 5% CO2 incubator at 37° C. for 3 days. Add 100 μL of CyQUANT detection reagent to each well, react at 37° C. for 60 min, and perform fluorescence detection using the PerkinElmer Envision.

Setting [2] is: Homo sapiens, HT-29, 72 h, HT29 at 2000 cells per well, 3 days incubation, CyQuant, initial concentration 3000 nM, DMSO 0.2%.
The mark [3] stands for this setting: Homo sapiens, OVCAR-3, 72 h, OVCAR3 cells, 3 days incubation, CyQUANT fluorescence detection, DMSO 0.2%.

The structures appear in SMILES notation. Read-outs that look alike come from different tables or passages of the source.

As for `O=C(Nc1cc2cccnc2c(N2CCC(F)(F)CC2)c1F)c1c(N2CCC3(CC2)CC3)cc(NS(=O)(=O)CCO)c2ccccc12` [Example 6, 2-{6-Azaspiro[2.5]octan-6-yl}-N-[8-(4,4-difluoropiperidin-1-yl)-7-fluoroquinolin-6-yl]-4-(2-hydroxyethanesulfonamido)naphthalene-1-carboxamide], the IC50 stood at 74 nM in the experiment with HT29 cells (setting [2]), 237 nM in experiment [1] and 67 nM in the experiment with OVCAR3 cells (setting [3]).
The corresponding values for `CC(CO)S(=O)(=O)Nc1cc(N2CCC3(CC2)CC3)c(C(=O)Nc2cc3sc(N)nc3c(N3CCC(F)(F)CC3)c2F)c2ccccc12` (stereo not drawn) [Example 10, N-[2-amino-4-(4,4-difluoropiperidin-1-yl)-5-fluoro-1,3-benzothiazol-6-yl]-2-{6-azaspiro[2.5]octan-6-yl}-4-(1-hydroxypropane-2-sulfonamido)naphthalene-1-carboxamide] are 44 nM, 180 nM and 35 nM.
As for `Cc1cc(NC(=O)c2c(N3CCC4(CC3)CC4)cc(NS(=O)(=O)CCO)c3ccoc23)nc(N2CCC(F)(F)CC2)n1` [Example 2, N-(2-(4,4-difluoropiperidin-1-yl)-6-methylpyrimidin-4-yl)-4-(2-hydroxyethylsulfonamido)-6-(6-azaspiro[2.5]octan-6-yl)-benzofuran-7-carboxamide], the values for the IC50 (in the experiment with HT29 cells (setting [2]); in experiment [1]; in the experiment with OVCAR3 cells (setting [3])) were 50 nM, 29 nM and 25 nM, respectively.
As for `Cc1cc(NC(=O)c2c(N3CCC4(CC3)CC4)cc(NS(=O)(=O)CCO)c3c2OCC3)nc(N2CCC(F)(F)CC2)n1` [Example 3, N-(2-(4,4-difluoropiperidin-1-yl)-6-methylpyrimidin-4-yl)-4-(2-hydroxyethylsulfonamido)-6-(6-azaspiro[2.5]octan-6-yl)-2,3-dihydrobenzofuran-7-carboxamide], the figures for the IC50 (in the experiment with HT29 cells (setting [2]); in experiment [1]; with OVCAR3 cells (setting [3])) were 45 nM, 27 nM and 28 nM, respectively.
Consider `Cc1cc(NC(=O)c2c(N3CCC4(CC3)CC4)cc(NS(=O)(=O)CCO)c3c2CCC3)nc(N2CCC(F)(F)CC2)n1` [Example 9, N-(2-(4,4-difluoropiperidin-1-yl)-6-methylpyrimidin-4-yl)-7-((2-hydroxyethyl)sulfonamido)-5-(6-azaspiro[2.5]oct-6-yl)-2,3-dihydro-1H-indene-4-carboxamide], for which the IC50 with HT29 cells (setting [2]) was 37 nM; in experiment [1], 176 nM; in the experiment on OVCAR3 cells (setting [3]) it was 26 nM.
With `Cc1cc(NC(=O)c2c(N3CCC4(CC3)CC4)cc(NS(=O)(=O)CCO)c3ccccc23)nc(N2CCC(F)(F)CC2)n1` [Example 4, N-(2-(4,4-difluoropiperidin-1-yl)-6-methylpyrimidin-4-yl)-4-(2-_hydroxyethylsulfonamido)-2-(6-azaspiro[2.5]octan-6-yl)-1-naphthamide], the IC50 in the experiment on HT29 cells was 52 nM; in experiment [1] it was 173 nM; in the experiment on OVCAR3 cells it was 37 nM.
With `Cc1cc(NC(=O)c2c(N3CCC4(CC3)CC4)cc(NS(=O)(=O)CCO)n3ccnc23)nc(N2CCC(F)(F)CC2)n1` [Example 1, N-(2-(4,4-difluoropiperidin-1-yl)-6-methylpyrimidin-4-yl)-5-(2-hydroxyethylsulfonamido)-7-(6-azaspiro[2.5]octan-6-yl)imidazo[1,2-a]pyridine-8-carboxamide], the results for the IC50 (in the experiment on HT29 cells (setting [2]); in experiment [1]; with OVCAR3 cells (setting [3])) were 877 nM, 112 nM and 442 nM, respectively.
In the case of `Cc1cc(NC(=O)c2c(N3CCC4(CC3)CC4)cc(NS(=O)(=O)C(C)(C)CO)c3c2CCC3)nc(N2CCC(F)(F)CC2)n1` [Example 11, N-(2-(4,4-difluoropiperidin-1-yl)-6-methylpyrimidin-4-yl)-7-((2-hydroxy-1,1-dimethylethyl)sulfonamide)-5-(6-azaspiro[2.5]oct-6-yl)-2,3-dihydro-1H-indene-4-carboxamide], the values for the IC50 (in the experiment with HT29 cells (setting [2]); in experiment [1]; in the experiment with OVCAR3 cells (setting [3])) were 29 nM, 170 nM and 20 nM, respectively.
For `Cc1cc(NC(=O)c2c(N3CCC4(CC3)CC4)cc(NS(=O)(=O)CCO)c3cccnc23)nc(N2CCC(F)(F)CC2)n1` [Example 8, N-(2-(4,4-difluoropiperidin-1-yl)-6-methylpyrimidin-4-yl)-5-((2-hydroxyethyl)sulfonamido)-7-(6-azaspiro[2.5]octan-6-yl)quinoline-8-carboxamide], the IC50 is above 1000 nM in the experiment on HT29 cells (setting [2]), 280 nM in experiment [1] and 488 nM in the experiment with OVCAR3 cells (setting [3]).
On to `COc1cc(NC(=O)c2c(N3CCC4(CC3)CC4)cc(NS(=O)(=O)CCO)c3ccccc23)nc(N2CCC(F)(F)CC2)n1` [Example 7, 2-{6-Azaspiro[2.5]octan-6-yl}-N-[2-(4,4-difluoropiperidin-1-yl)-6-methoxypyrimidin-4-yl]-4-(2-hydroxyethanesulfonamido)naphthalene-1-carboxamide], for which the values for the IC50 (in the experiment with HT29 cells (setting [2]); in experiment [1]; with OVCAR3 cells (setting [3])) were 123 nM, 635 nM and 98 nM, respectively.
The corresponding values for `Cc1cc(NC(=O)c2c(N3CCC4(CC3)CC4)cc(NS(=O)(=O)CCO)c3ncccc23)nc(N2CCC(F)(F)CC2)n1` [Example 5, N-(2-(4,4-difluoropiperidin-1-yl)-6-methylpyrimidin-4-yl)-8-(2-hydroxyethanesulfonamido)-6-(6-azaspiro[2.5]octan-6-yl)quinoline-5-carboxamide] are 65 nM, 134 nM and 36 nM.
